# Test results: US8138188B2, “Melanocortin type 4 receptor agonist piperidinoylpyrrolidines” (Pfizer Inc., priority 2006, dated 2012)
# pKi: −log10 of the molar value.
# Columns and labels:
# CYP3A4 = target: T1, CYP3A4 (Homo sapiens, UniProt P08684); experiment: High density drug-drug interactions (DDI) 3 μM cocktail screen in human liver microsomes; format: in vitro ADME; details: 3 uM test compound, pooled human liver microsomes, probe midazolam 2 μM; read-out: % Inhibition of 3A4 metabolism at 3 uM
# T1 construct: utilizes human liver microsomes together with isoform-specific clinical drug probes; from tissue; host or cells: human liver microsomes
# Experimental: High Density Drug-Drug Interactions (DDI) 3 μM Cocktail Screen
# A drug interaction is a situation in which a substance affects the activity of another drug, i.e. the effects are increased or decreased, or together they produce a new effect that neither produces on its own. Drug interactions may be the result of various processes but a relatively common one is where one drug affects the pharmacokinetics of another by inhibiting the cytochrome P450 that metabolises it. Because of the importance of these phenomena, assessment of the DDI potential for new chemical entities (NCEs) is considered important early on in the drug discovery process.
# The DDI cocktail screen in human liver microsomes (HLM) is run in a fully automated fashion and the aim of the screen is to provide a single-point assessment of the DDI potential of new chemical entity (NCE; tested at 3 μM) against the 4 primary cytochrome P450 enzymes, 1A2, 2D6, 2C9 and 3A4.
# The substrate cocktail approach for P450 DDI utilizes human liver microsomes together with isoform-specific clinical drug probes and permits the simultaneous measurement of the inhibition of P450 1A2, 2C9, 2D6 & 3A4 activities in a single incubation. This is run in high throughput with simultaneous detection of metabolites by LC-MS/MS. This method has been thoroughly tested and evaluated using standard compounds.
# Appearance of the metabolite of each substrate is measured over time in the presence and absence of the NCE (test compound/inhibitor) at a concentration of 3 μM. The compounds are assessed for their inhibitory potential as a percentage value and interpreted using the following scheme.
# MC3 receptor (MC3R) = target: T2, MC3 receptor (MC3R) (Homo sapiens, UniProt P41968); experiment: Nle4, D-Phe7-α-MSH inhibition at the MC3 receptor (SPA competition binding); details: vs 0.06 nM Nle4, D-Phe7-α-MSH, CHO-CRE MC3R cell membranes
# T2 construct: expressed in transfected cells; host or cells: CHO-CRE MC3R cells (membranes)
# Text: Nle4, D-Phe7-α-MSH Inhibition at the MC3 Receptor
# Nle4, D-Phe7-α-MSH is a stable analogue of melanocyte-stimulating hormone (MSH), which is an agonist at the MC3 receptor (MC3R). Compounds can be evaluated for their ability to inhibit Nle4, D-Phe7-α-MSH binding to membranes from cells expressing the MC3R using a competition binding assay versus [^125I] Nle4, D-Phe7-α-MSH.
# Cells expressing the MC3R were subject to homogenisation and the membrane fragment isolated by differential centrifugation. CHO-CRE MC3R cell membranes were coupled to PVT-PEI-WGA SPA Beads type A for 2 hours, spun at 1000 RPM for 5 mins and suspended to a final assay concentration of 800 ug bead/ml (1.2 ug membrane, 40 ug bead per well). Bead/membrane mix was incubated with 0.06 nM Nle4, D-Phe7-α-MSH and 11 half-log concentrations of competitor ligand, in duplicate, in a total volume of 50 μl buffer per well (25 mM HEPES, 1 mM MgCl2, 2.5 mM CaCl2, 1% Pluronic F68, 1 complete EDTA protease inhibitor tablet/50 ml pH7).
# Non-specific binding was determined by the inclusion of 100 nM SHU9119. The reaction was initiated by the addition of bead/membranes and plates were incubated at room temperature for 12 hours (the first hour on a plate shaker), after which the amount of radioactivity present was determined using a Wallac plate counter. Ki values were determined by data analysis using appropriate software.
# MC4 receptor (MC4R) = target: T3, MC4 receptor (MC4R) (Homo sapiens, UniProt P32245); experiment: Nle4, D-Phe7-α-MSH inhibition at the MC4 receptor (SPA competition binding vs [125I] Nle4, D-Phe7-α-MSH); details: vs 0.06 nM [125I] Nle4, D-Phe7-α-MSH, CHO-CRE MC4R cell membranes
# T3 construct: expressed in transfected cells; host or cells: CHO-CRE MC4R cells (membranes)
# Text: Nle4, D-Phe7-α-MSH Inhibition at the MC4 Receptor
# Nle4, Nle4, D-Phe7-α-MSH is a stable analogue of melanocyte-stimulating hormone (MSH), which is an agonist at the MC4 receptor (MC4R). Compounds can be evaluated for their ability to inhibit Nle4, Nle4, D-Phe7-α-MSH binding to membranes from cells expressing the MC4R using a competition binding assay versus [^125I] Nle4, D-Phe7-α-MSH.
# Cells expressing the MC4R were subject to homogenisation and the membrane fragment isolated by differential centrifugation. CHO-CRE MC4R cell membranes were coupled to PVT-PEI-WGA SPA Beads type A for 2 hours, spun at 1000 RPM for 5 mins and suspended to a concentration of 300 ug bead/ml (0.15 ug membrane, 15 ug bead per well). Bead/membrane mix was incubated with 0.06 nM [^125I] Nle4, D-Phe7-α-MSH and 11 half-log concentrations of competitor ligand, in duplicate, in a total volume of 50 μl buffer per well (25 mM HEPES, 1 mM MgCl2, 2.5 mM CaCl2, 1% Pluronic F68, 1 complete EDTA protease inhibitor tablet/50 ml pH7). Non-specific binding was determined by the inclusion of 100 nM SHU9119. The reaction was initiated by the addition of bead/membranes and plates were incubated at room temperature for 12 hours (the first hour on a plate shaker), after which the amount of radioactivity present was determined using a Wallac plate counter. Ki values were determined by data analysis using appropriate software.
# T1 sequence (P08684 whole entry, canonical isoform): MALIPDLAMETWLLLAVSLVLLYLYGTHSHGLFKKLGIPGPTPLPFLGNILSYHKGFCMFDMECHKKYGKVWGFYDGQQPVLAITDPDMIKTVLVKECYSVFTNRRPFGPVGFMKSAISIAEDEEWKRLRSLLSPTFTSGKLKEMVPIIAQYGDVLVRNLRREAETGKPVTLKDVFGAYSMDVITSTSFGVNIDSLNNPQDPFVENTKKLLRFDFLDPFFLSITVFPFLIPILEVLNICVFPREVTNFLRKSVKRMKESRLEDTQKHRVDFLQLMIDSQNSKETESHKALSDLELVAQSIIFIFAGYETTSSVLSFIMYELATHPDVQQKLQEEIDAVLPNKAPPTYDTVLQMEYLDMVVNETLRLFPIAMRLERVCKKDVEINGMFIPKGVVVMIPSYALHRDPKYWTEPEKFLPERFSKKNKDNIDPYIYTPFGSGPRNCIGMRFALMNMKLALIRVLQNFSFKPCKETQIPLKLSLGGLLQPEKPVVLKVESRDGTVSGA
# T2 sequence (P41968 whole entry): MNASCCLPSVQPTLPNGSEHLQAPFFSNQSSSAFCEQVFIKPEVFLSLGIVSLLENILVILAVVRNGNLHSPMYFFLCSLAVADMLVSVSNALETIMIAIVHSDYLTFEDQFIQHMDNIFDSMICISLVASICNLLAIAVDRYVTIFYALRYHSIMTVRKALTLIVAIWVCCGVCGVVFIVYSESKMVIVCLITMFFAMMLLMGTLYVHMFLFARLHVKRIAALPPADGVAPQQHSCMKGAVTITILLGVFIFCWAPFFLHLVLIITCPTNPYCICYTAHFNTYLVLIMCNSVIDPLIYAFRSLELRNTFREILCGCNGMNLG
# T3 sequence (P32245 whole entry): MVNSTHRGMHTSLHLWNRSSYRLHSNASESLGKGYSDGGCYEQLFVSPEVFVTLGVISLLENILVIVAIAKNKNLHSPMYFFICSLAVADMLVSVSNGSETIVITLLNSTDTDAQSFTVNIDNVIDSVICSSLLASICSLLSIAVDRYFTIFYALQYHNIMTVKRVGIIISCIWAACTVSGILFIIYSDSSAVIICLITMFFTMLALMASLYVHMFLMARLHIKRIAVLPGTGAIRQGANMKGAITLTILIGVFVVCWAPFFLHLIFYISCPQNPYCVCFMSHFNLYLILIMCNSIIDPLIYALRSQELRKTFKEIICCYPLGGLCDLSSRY
inhibition at 3 μM (CYP3A4) [%],pKi (MC3 receptor (MC3R)),pKi (MC4 receptor (MC4R)),SMILES
54,,,"C[C@@H]1CN(C(=O)[C@@H]2CN(c3ccc(C#N)cn3)C[C@H]2c2ccc(Cl)cn2)C[C@H](C)[C@@]1(O)c1ccc(F)cc1 [Example 1, 6-[(3S,4S)-3-(5-Chloropyridin-2-yl)-4-{[(3R,4R,5S)-4-(4-fluorophenyl)-4-hydroxy-3,5-dimethylpiperidin-1-yl]carbonyl}pyrrolidin-1-yl]nicotinonitrile]"
64,6.91,7.57,"C[C@@H]1CN(C(=O)[C@@H]2CN(c3ccc(C#N)nn3)C[C@H]2c2ccc(Cl)cn2)C[C@H](C)[C@@]1(O)c1ccc(F)cc1 [Example 2, 6-[(3S,4S)-3-(5-Chloropyridin-2-yl)-4-{[(3R,4R,5S)-4-(4-fluorophenyl)-4-hydroxy-3,5-dimethylpiperidin-1-yl]carbonyl}pyrrolidin-1-yl]pyridazine-3-carbonitrile]"
38,,,"COc1ccc(N2C[C@@H](C(=O)N3C[C@@H](C)[C@](O)(c4ccc(F)cc4)[C@@H](C)C3)[C@H](c3ccc(Cl)cn3)C2)nn1 [Example 4, (3R,4R,5S)-1-{[(3S,4S)-4-(5-chloropyridin-2-yl)-1-(6-methoxypyridazin-3-yl)pyrrolidin-3-yl]carbonyl}-4-(4-fluorophenyl)-3,5-dimethylpiperidin-4-ol]"
34,,,"C[C@@H]1CN(C(=O)[C@@H]2CN(c3ccc(Cl)nn3)C[C@H]2c2ccc(F)cn2)C[C@H](C)[C@@]1(O)c1ccc(Cl)cc1 [Example 5, (3R,4R,5S)-4-(4-chlorophenyl)-1-{[(3S,4S)-1-(6-chloropyridazin-3-yl)-4-(5-fluoropyridin-2-yl)pyrrolidin-3-yl]carbonyl}-3,5-dimethylpiperidin-4-ol]"
32,,,"C[C@@H]1CN(C(=O)[C@@H]2CN(c3ccc(=O)[nH]n3)C[C@H]2c2ccc(F)cn2)C[C@H](C)[C@@]1(O)c1ccc(Cl)cc1 [Example 6, 6-[(3S,4S)-3-{[(3R,4R,5S)-4-(4-chlorophenyl)-4-hydroxy-3,5-dimethylpiperidin-1-yl]carbonyl}-4-(5-fluoropyridin-2-yl)pyrrolidin-1-yl]pyridazin-3(2H)-one]"
19,,,"C[C@@H]1CN(C(=O)[C@@H]2CN(c3ccc(=O)n(C)n3)C[C@H]2c2ccc(F)cn2)C[C@H](C)[C@@]1(O)c1ccc(Cl)cc1 [Example 7, 6-[(3S,4S)-3-{[(3R,4R,5S)-4-(4-chlorophenyl)-4-hydroxy-3,5-dimethylpiperidin-1-yl]carbonyl}-4-(5-fluoropyridin-2-yl)pyrrolidin-1-yl]-2-methylpyridazin-3(2H)-one]"
94,,,"C[C@@H]1CN(C(=O)[C@@H]2CN(c3cncc(F)c3)C[C@H]2c2ccc(Cl)cn2)C[C@H](C)[C@@]1(O)c1ccccn1 [Example 8, (3R,4R,5S)-1-{[(3S,4S)-4-(5-chloropyridin-2-yl)-1-(5-fluoropyridin-3-yl)pyrrolidin-3-yl]carbonyl}-3,5-dimethyl-4-pyridin-2-ylpiperidin-4-ol]"
68,,,"C[C@@H]1CN(C(=O)[C@@H]2CN(c3cccnn3)C[C@H]2c2ccc(Cl)cn2)C[C@H](C)[C@@]1(O)c1ccccn1 [Example 9, (3R,4R,5S)-1-{[(3S,4S)-4-(5-chloropyridin-2-yl)-1-pyridazin-3-ylpyrrolidin-3-yl]carbonyl}-3,5-dimethyl-4-pyridin-2-ylpiperidin-4-ol]"
83,,,COc1ccc(C2CN(c3ccc(C#N)nn3)CC2C(=O)N2CC(C)C(O)(c3ccc(F)cc3)C(C)C2)cn1 (stereo not drawn) [Example 16]
34,,,C[C@@H]1CN(C(=O)[C@@H]2CN(c3ccc(=O)n(C)n3)C[C@H]2c2ccc(Cl)cn2)C[C@H](C)[C@@]1(O)C1CC1 [Example 18]
25,,,CC1CN(C(=O)C2CN(c3ccc(=O)n(C)n3)CC2c2ccc(Cl)cn2)CC(C)C1(O)c1ccccc1 (stereo not drawn) [Example 21]
54,5.25,,C[C@@H]1CN(C(=O)[C@@H]2CN(c3ccc(=O)n(C)n3)C[C@H]2c2ccc(Cl)cn2)C[C@H](C)[C@@]1(O)c1ccccn1 [Example 22]
87,,,CC1CN(C(=O)C2CN(c3cncc(F)c3)CC2c2ccc(Cl)cn2)CC(C)C1(O)C1CC1 (stereo not drawn) [Example 24]
61,,,COc1ccc(N2CC(C(=O)N3CC(C)C(O)(C4CC4)C(C)C3)C(c3ccc(Cl)cn3)C2)nn1 (stereo not drawn) [Example 26]
64,,,CC1CN(C(=O)C2CN(c3ccc(=O)[nH]n3)CC2c2ccc(Cl)cn2)CC(C)C1(O)c1ccccc1 (stereo not drawn) [Example 27]
77,5.78,,C[C@@H]1CN(C(=O)[C@@H]2CN(c3ccc(=O)[nH]n3)C[C@H]2c2ccc(Cl)cn2)C[C@H](C)[C@@]1(O)c1ccccn1 [Example 28]
38,,,CC1CN(C(=O)C2CN(c3ccc(C#N)nn3)CC2c2ccc(Cl)cn2)CC(C)C1(O)c1ccccn1 (stereo not drawn) [Example 30]
60,,,C[C@@H]1CN(C(=O)[C@@H]2CN(c3ccc(Cl)nn3)C[C@H]2c2ccc(Cl)cn2)C[C@H](C)[C@@]1(O)c1ccccn1 [Example 31]
19,,,CC1CN(C(=O)C2CN(c3ccc(C#N)nn3)CC2c2ccc(F)cn2)CC(C)C1(O)c1ccccc1 (stereo not drawn) [Example 33]
46,,,C[C@@H]1CN(C(=O)[C@@H]2CN(c3ccc(Cl)nn3)C[C@H]2c2ccc(F)cn2)C[C@H](C)[C@@]1(O)c1ccccc1 [Example 35]
45,,,CC1CN(C(=O)C2CN(c3ccc(=O)[nH]n3)CC2c2ccc(F)cn2)CC(C)C1(O)c1ccccc1 (stereo not drawn) [Example 37]
30,,,CC1CN(C(=O)C2CN(c3ccc(=O)n(C)n3)CC2c2ccc(F)cn2)CC(C)C1(O)c1ccccc1 (stereo not drawn) [Example 39]
64,,,CC1CN(C(=O)C2CN(c3ccc(=O)n(C)n3)CC2c2ccc(F)cn2)CC(C)C1(O)c1ccc(F)cc1 (stereo not drawn) [Example 40]
52,,,COc1ccc([C@@H]2CN(c3ccc(=O)[nH]n3)C[C@H]2C(=O)N2C[C@@H](C)[C@](O)(c3ccc(Cl)cn3)[C@@H](C)C2)nc1 [Example 41]
59,,,COc1ccc(C2CN(c3ccc(=O)[nH]n3)CC2C(=O)N2CC(C)C(O)(c3ccc(F)cc3)C(C)C2)nc1 (stereo not drawn) [Example 42]
44,,,COc1ccc([C@@H]2CN(c3ccc(C#N)nn3)C[C@H]2C(=O)N2C[C@@H](C)[C@](O)(c3ccc(F)cc3)[C@@H](C)C2)nc1 [Example 43]
69,,,CC1CN(C(=O)C2CN(c3ccc(C#N)cn3)CC2c2ccc(C#N)cn2)CC(C)C1(O)c1ccc(F)cc1 (stereo not drawn) [Example 45]
74,6.26,,C[C@@H]1CN(C(=O)[C@@H]2CN(c3ccc(C#N)nn3)C[C@H]2c2ccc(C#N)cn2)C[C@H](C)[C@@]1(O)c1ccc(F)cc1 [Example 46]
